According to ChEMBL document CHEMBL1144317, “Antimitotic activity and reversal of breast cancer resistance protein-mediated drug resistance by stilbenoids from Bletilla striata” (Bioorg Med Chem Lett, 2005):
pIC50: −log10 of the molar value.

Target: Beta tubulin
Test: Inhibition of tubulin polymerization interacting at the colchicine binding site.
Assay type: functional

Compound | pIC50
COc1c(O)ccc2c1ccc1c(Cc3ccc(O)cc3)c(O)cc(OC)c12 | 4.52
COc1c(Cc2ccc(O)cc2)c(O)c(Cc2ccc(O)cc2)c2c1-c1ccc(O)cc1CC2 | 4.52
COc1cc(O)c(Cc2ccc(O)cc2)c(CCc2cccc(O)c2)c1Cc1ccc(O)cc1 | 5.00
COc1cc(O)cc(CCc2cccc(O)c2)c1Cc1ccc(O)cc1 | 5.00
COc1cc(O)c(-c2c(O)cc3c(c2OC)-c2ccc(O)cc2CC3)c2c1-c1ccc(O)cc1CC2 | 4.52
COc1cc(O)c2c(c1Cc1ccc(O)cc1)CCc1cc(O)ccc1-2 | 3.52
COc1cc(O)c(-c2c(O)cc(OC)c3c2ccc2cc(O)ccc23)c2ccc3cc(O)ccc3c12 [CIRRHOPETALANTHIN] | 4.52
COc1cc(O)c(-c2c(O)cc(OC)c3c2ccc2cc(O)ccc23)c2c1-c1ccc(O)cc1CC2 [CIRRHOPETALANTHRIN] | 4.52
CC[C@]1(O)C[C@@H]2CN(CCc3c([nH]c4ccccc34)[C@@](C(=O)OC)(c3cc4c(cc3OC)N(C)[C@H]3[C@@](O)(C(=O)OC)[C@H](OC(C)=O)[C@]5(CC)C=CCN6CC[C@]43[C@@H]65)C2)C1 [VINBLASTINE] | 6.00
